Reference: patent publication US20150010474A1, “Compounds And Methods For Selective Imaging And/Or Ablation” (Auckland Uniservices Limited, priority 2011, published 2015)

Legend:
[1] = test system: NfsB (E.s); test: Initial rate of metabolism by purified recombinant bacterial nitroreductase (NADPH consumption, UV/Vis); assay type: biochemical, Enterobacter (Chronobacter) sakazakii; details: compound 500 μM, NADPH 200 μM, 10 mM Tris-Cl pH 7.0; μmol NADPH consumed per mg enzyme per minute
Method: The relative initial rates of reductive metabolism of the nitro moiety of test compounds by bacterial nitroreductase's can be measured experimentally by incubating the test compound at near-saturating concentration (determined empirically) with the purified recombinant bacterial nitroreductase enzymes in the presence of NADPH co-factor. UV/Vis spectroscopy is used to measure consumption of the co-factor, indicating metabolism of the test compound by the nitroreductase.
Compounds 67, 93 and 97 (500 μM) were added to NADPH (200 μM) in 10 mM Tris-Cl pH 7.0. Reactions were initiated by enzyme addition (between 5 and 20 μg per reaction). Rates represent μmol of NADPH consumed per mg enzyme added per minute.

[2] = test system: human solid tumour xenograft HCT116 (WT); test: Hypoxia-dependent binding by immunofluorescent microscopy with pimonidazole co-staining; assay type: in vivo, NIH-III nude mice; details: 60 mg/kg i.p., 60 minutes after 60 mg/kg pimonidazole; tumours excised after 120 minutes
Method: FIG. 9 illustrates the absence of hypoxic dependent binding of compound 67 in the human solid tumour xenograft HCT116 relative to compound 15 whilst including hypoxia co-staining by pimonidazole (Hypoxyprobe™) as an internal reference (positive control). HCT116 WT tumours were inoculated subcutaneously onto the flank of NIH-Ill nude mice. When the mixed tumours reached approximately 500 mm^3, mice were dosed i.p. with 60 mg/kg of pimonidazole, and 60 minutes later dosed with either 60 mg/kg of compound 15 or 60 mg/kg of compound 67. After 120 minutes the tumours were excised, and fixed in formalin before being embedded in paraffin wax. Tumour section were cut (5 microns) and mounted onto glass slides for immunodetection of bound adducts of compounds. Immunofluorescent microscopy was performed using a monoclonal antibody (Mab1, hybridoma clone 4.3.11.3) conjugated to Alexa-488 (green) for the detection of pimonidazole adducts, and monoclonal antibody ELK3-51 directly conjugated to the fluorophore CY5 (Ex/Em 650/670 nm) for detection of adducts formed by compound 15 or compound 67. The overlap of pimonidazole with either one of these markers appears as yellow. Images were acquired on a Zeiss LSM 710 confocal microscope (×20 magnification).

Cc1ncc([N+](=O)[O-])n1CC(=O)NCC(F)(F)C(F)(F)F [Compound 67, 2-(2-methyl-5-nitro-1H-imidazol-1-yl)-N-(2,2,3,3,3-pentafluoropropyl)acetamide]
Rate of metabolism by NfsB (E.s) [1]: 2.4 µmol/min/mg | Hypoxia-dependent binding in HCT116 WT tumours (FIG. 9) [2]: not detected in the pimonidazole positive hypoxic regions of the tumour | melting point: 149 to 151 °C
